Where a SMILES comes first, the peptide text is derived from it. The star is where a group is joined. Cbz = O=C(OCc1ccccc1)*; CH2F = FC*

The subject of series [1] is whole blood samples. The series is described as follows: 18S DNA duplex real time PCR assay, increase of DNA in plasma of stored blood, example 5. The class given is cell-based, human. The note with it: 20 μM caspase inhibitor in whole blood; storage at RT. In general terms: Real-time PCR tracks product formation cycle by cycle.
For series [2] the following is noted: in DMSO (highest concentration listed in the cell); cited from earlier work.
Series [3] has as its system whole blood samples. The series is described as follows: DNA size distribution by chip gel electrophoresis (blood cell stability/DNA release). The class given is cell-based, human. To be noted: 20 μM in 10 ml K2E blood; day 3 and day 7. The procedure: To separate the blood plasma from the whole blood, the blood samples were centrifuged for 15 min at 5000 rpm, and the obtained plasma samples were again centrifuged for 10 min at 16.000×g at 4° C.
The circulating, extracellular nucleic acids were purified from the obtained plasma samples using the QIAamp® Circulating NA Kit (QIAGEN, according to the handbook). In brief: • 10 ml sample input; • lysis: 1 ml Proteinase K and 8 ml Buffer ACL (QIAGEN) • binding: 18 ml Buffer ACB (QIAGEN) • wash-steps: unchanged and according to handbook • elution in 60 μl Buffer AVE (QIAGEN)
1.3.1 Measurement of the blood cell stability/DNA release by the determination of DNA size distribution using a chip gel electrophoresis (2100 Bioanalyzer; Agilent Technologies; Inc., USA) according to manufacturer's instruction (see handbook Agilent DNA 7500 and DNA 12000 Kit Guide), but 1.5 μl instead of 1 μl sample were transferred to the wells.
Each tested caspase inhibitor was added to whole blood samples (20 μM end concentration in 10 ml blood; blood was collected into Vacutainer K2E Tubes; BD). The whole blood sample was processed as described in section 1 (plasma preparation and nucleic acid isolation).
The eluted circulating cell-free DNA was separated by size using chip gel electrophoresis (for details on the method see above). […]

`COC(=O)C[C@H](NC(=O)[C@H](C)NC(=O)[C@@H](NC(=O)OCc1ccccc1)C(C)C)C(=O)CF` [Z-Val-Ala-Asp(OMe)-FMK] (Cbz-Val-Ala-Asp(OMe)-CH2F): the “increase of DNA from day 0 to day 3 or 7” value with whole blood samples [1] is recorded as “more prominent on day 7”. Further, the solubility in series [2] is 20 mM, add 107 μl DMSO 10 mM, add 214 μl DMSO 5 mM, add 428 μl DMSO. Moreover, the “ladder-like pattern of bands (release and fragmentation of genomic DNA) compared to controls” value in the series on whole blood samples [3] is given as “reduced ladder-like pattern”.
